Assay results from ChEMBL document CHEMBL5104233, “Advanced approaches of developing targeted covalent drugs” (RSC Med Chem, 2022).
Values belong to the compound of their own block, whether it stands above or below them.

What was measured:
[1] = target: T1, Cyclin-dependent kinase 2 (Homo sapiens, UniProt P24941); experiment: Inhibition of CDK2 (unknown origin)
[2] = target: T1, Cyclin-dependent kinase 2; experiment: Inhibition of pan-CDK2 (unknown origin) relative to control; settings: concentration not given here
[3] = target: Human immunodeficiency virus type 1 reverse transcriptase (Human immunodeficiency virus 1, UniProt Q72547, Y181C); experiment: Inhibition of HIV-1 reverse transcriptase Y181C mutant
Jurkat = experiment: Antiproliferative activity against human Jurkat cells assessed as inhibition of cell growth incubated for 72 hrs by Celltiter Glo assay; assay type: functional, cell-based
CDK7/Cyclin H/MNAT1 = CDK7/Cyclin H/MNAT1 (Homo sapiens, UniProt P50613); experiment: Inhibition of CDK7/Cyclin H/MAT1 (unknown origin) in leukemia cells; assay type: cell-based, Leukemia cell
CD4+ve Th = experiment: Inhibition of Th1 cell differentiation in human peripheral blood CD4+ve Th cells assessed as decrease in IFNgamma production measured after 5 days; assay type: functional, cell-based; settings: 120 h

CDK7/Cyclin H/MNAT1, sequence (P51946 whole entry): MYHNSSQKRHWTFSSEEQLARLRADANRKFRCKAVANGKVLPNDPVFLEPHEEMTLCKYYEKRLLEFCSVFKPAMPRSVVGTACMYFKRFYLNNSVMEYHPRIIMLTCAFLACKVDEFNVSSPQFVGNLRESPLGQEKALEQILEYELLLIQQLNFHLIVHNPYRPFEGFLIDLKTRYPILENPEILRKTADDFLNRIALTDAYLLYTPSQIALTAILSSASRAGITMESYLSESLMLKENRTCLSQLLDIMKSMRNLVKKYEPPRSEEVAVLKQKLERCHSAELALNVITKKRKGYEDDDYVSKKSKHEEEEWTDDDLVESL
CDK7/Cyclin H/MNAT1, sequence (P50613 whole entry): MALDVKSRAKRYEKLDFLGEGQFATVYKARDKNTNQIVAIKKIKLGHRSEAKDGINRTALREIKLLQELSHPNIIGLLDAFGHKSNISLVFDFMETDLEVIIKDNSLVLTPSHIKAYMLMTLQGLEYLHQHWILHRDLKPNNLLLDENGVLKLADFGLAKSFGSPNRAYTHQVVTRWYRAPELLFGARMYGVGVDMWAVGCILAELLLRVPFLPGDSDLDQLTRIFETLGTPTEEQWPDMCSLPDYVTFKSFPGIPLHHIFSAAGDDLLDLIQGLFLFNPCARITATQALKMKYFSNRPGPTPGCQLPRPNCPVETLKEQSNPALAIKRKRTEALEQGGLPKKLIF
CDK7/Cyclin H/MNAT1, sequence (P51948 whole entry, further chain): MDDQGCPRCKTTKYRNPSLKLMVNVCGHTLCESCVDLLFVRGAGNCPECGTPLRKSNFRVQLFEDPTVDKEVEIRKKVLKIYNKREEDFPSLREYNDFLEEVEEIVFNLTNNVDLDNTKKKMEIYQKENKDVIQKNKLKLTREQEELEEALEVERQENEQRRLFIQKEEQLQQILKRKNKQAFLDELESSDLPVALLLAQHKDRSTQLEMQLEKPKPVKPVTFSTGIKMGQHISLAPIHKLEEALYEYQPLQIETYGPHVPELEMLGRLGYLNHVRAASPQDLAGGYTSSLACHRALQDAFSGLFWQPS

SMILES: Cc1c(Oc2ccccc2OCCn2ccc(=O)[nH]c2=O)cc(N(C)C(=O)CCl)c2ccc(C#N)cc12
- IC50 [3]: 480 nM

SMILES: C=CC(=O)N1C[C@H](Nc2ncnc3[nH]ccc23)CC[C@@H]1C [RITLECITINIB]
- IC50 (CD4+ve Th): 48 nM

SMILES: C=CC(=O)N(C)c1cc(Oc2ccccc2OCCn2ccc(=O)[nH]c2=O)c(C)c2cc(C#N)ccc12
- IC50 [3]: 400 nM

Results, then the compound that gave them:

- IC50 [1]: 160 nM
- inhibition [2]: 50%
SMILES: C=CS(=O)(=O)c1ccc(Nc2nc(OCC3CCCCC3)c3nc[nH]c3n2)cc1

- IC50 (Jurkat): 50 nM
SMILES: CN(C)C/C=C/C(=O)Nc1ccc(C(=O)N2CCC[C@H](Nc3ncc(Cl)c(-c4c[nH]c5ccccc45)n3)C2)cc1

- IC50 (CDK7/Cyclin H/MNAT1): 1.3 nM
SMILES: C=C(F)C(=O)N1CCN(c2nc(OC[C@@H]3CCCN3C)nc3c2CCN(c2cccc4cccc(Cl)c24)C3)C[C@@H]1CC#N [ADAGRASIB]
